Measured values as given in patent US9968634B2, “Techniques and systems for treatment of neuropathic pain and other indications” (priority 2012, dated 2018).

Tests used:
[1] = system: capillary circulation of the skin; assay: Laser Doppler study of creams in five human subjects, Example 7; assay type: in vivo; conditions: positive control formulation, 0.1% methyl nicotinate
Text: This example illustrates delivery of nitric oxide formulations to five human subjects, using procedures and formulations similar to those discussed in Example 5. Each person served as their own control for the testing. A Moor Instruments Laser Doppler was used to determine circulation. […] The formulations used produce positive, almost immediate results when applied to the skin which, in these studies, was manifested by vasodilatation of the cutaneous vascular system.
For each subject, the following creams were applied: a negative control formulation (containing no NO), 0.010 gram of a 10,000 ppm NO formulation, 0.020 gram of a 10,000 ppm NO formulation, and a positive control formulation containing 0.1% methyl nicotinate. The formulations were prepared using procedures similar to those discussed in Example 1.

[2] = system: micro-capillary blood flow to skin; assay: Laser Doppler study with closed Hilltop chamber on forearm, Example 5; assay type: in vivo, human; conditions: applied to the skin at 1/10% in alcohol
Text: The formulation used in these studies contained nitric oxide dispersed in a lipid matrix. […] Nitric oxide is a very rapid acting molecule, and these studies used a system that employed laser Doppler with a covered chamber. The formulation was placed into the chamber and then attached to the skin by an adhesive layer on the covering. This provided a stable measuring device as determined by multiple normal evaluations of the capillary blood flow without treatment of nitric oxide.
A known positive control, methyl nicotinate, was applied to the skin at a concentration of 1/10% in alcohol. […] The vascular dynamics are such that when the blood vessels dilate physical parameters follow Bernoulli's law. […] The laser Doppler device accurately measured these parameters.
In these studies, the participants were healthy females aged 30 to 55 years. They were in good health as determined by the medical history and were not taking any prescription medications. All study participants read and signed the informed consent statement prior to any study procedures being performed. […]
A Moor Instruments DRT4 Laser Doppler Blood Flow Monitor (Devon, England) was used in these studies. The laser Doppler technique measured blood flow in the microcapillaries of the skin that are close to the skin surface and the blood flow in underlying arterioles and venules that help to regulate skin temperature. […]

## COC(=O)c1cccnc1 [methyl nicotinate]
[1]
  vasodilatation (laser Doppler): vasodilatation was observed
[2]
  laser Doppler response of positive control: rapid response typical of the vasodilator
